Reference: paper doi:10.1101/2022.10.27.513961v1 (bioRxiv, 2022)
Where a SMILES comes first, the peptide text is derived from it. Bridges are numbered along the chain shown (N, C = ends).

Tests used:
Assay type in all cases: cell-based
WM164 cells [1] = test: Cytotoxicity, resazurin assay
HT144 cells [2] = test: Cytotoxicity, resazurin assay; details: HT144, cTI 0.5 to 3 µM over 100 days
WM164 cells [3] = test: Real-time cell analysis, xCELLigence impedance
HT144 cells [4] = test: Real-time cell analysis, xCELLigence impedance
WM164 cells [5] = test: Co-treatment of dabrafenib with peptide, resazurin assay; details: drug-naïve WM164, drug (50 nM) or peptide (at IC50) added alone, 72 h
WM164 cells [6] = test: Lipidome analysis, shotgun tandem MS of lipid extracts
WM164 cells [7] = test: Microscopy during long-term treatment; details: WM164, after 2 µM cTI for one week
HT144 cells [8] = test: Microscopy during long-term treatment; details: HT144, treatment with cTI for 100 days

CC[C@H](C)[C@@H]1NC(=O)CNC(=O)[C@H](CCCNC(=N)N)NC(=O)[C@H](Cc2ccc(O)cc2)NC(=O)[C@@H]2CSSC[C@H](NC1=O)C(=O)N[C@@H](Cc1ccc(O)cc1)C(=O)N[C@@H](CCCNC(=N)N)C(=O)N[C@@H](CCCNC(=N)N)C(=O)N[C@H]1CSSC[C@H](NC(=O)[C@H](Cc3c[nH]c4ccccc34)NC(=O)[C@H](CCCCN)NC(=O)CNC(=O)[C@H](CCCNC(=N)N)NC1=O)C(=O)N[C@@H](Cc1ccccc1)C(=O)N[C@@H](CCCNC(=N)N)C(=O)N[C@@H](C(C)C)C(=O)N2 [cTI, cyclic tachyplesin I] (cyclo(CFRVCYRGICYRRCRGKW); disulfide 1-14, 5-10)
cell death (WM164 cells [1]; 5 x10^3 WM164 cells seeded for 24 h, 3 µM peptide, resazurin): 50%
development of resistance (WM164 cells [1]; WM164, cTI 0.5 to 3 µM over 100 days): did not develop resistance
development of resistance (HT144 cells [2]): did not develop resistance
reduction in impedance signal (WM164 cells [3]; 5 µM, 24 h): ~50%
time to drop in the impedance to ∼0 (WM164 cells [3]; 10 µM): 2 to 3 h
cell proliferation (WM164 cells [3]; 10^4 WM164 cells seeded for 24 h, 5 µM): ~50%
reduction in impedance signal (HT144 cells [4]; 5 µM, 24 h): ~50%
time to drop in the impedance to ∼0 (HT144 cells [4]; 10 µM): 2 to 3 h
cell death (WM164 cells [5]): ~ 50%
PC 30:0, Mean nmol/M cells (WM164 cells [6]; WM164, 1µM cTI_15d): 0.78 nmol/M cells
PC 30:1, Mean nmol/M cells (WM164 cells [6]; WM164, 1µM cTI_15d): 0.42 nmol/M cells
PC 32:0, Mean nmol/M cells (WM164 cells [6]; WM164, 1µM cTI_15d): 0.50 nmol/M cells
PC 32:1, Mean nmol/M cells (WM164 cells [6]; WM164, 1µM cTI_15d): 3.15 nmol/M cells
PC 32:2, Mean nmol/M cells (WM164 cells [6]; WM164, 1µM cTI_15d): 0.38 nmol/M cells
PC 34:1, Mean nmol/M cells (WM164 cells [6]; WM164, 1µM cTI_15d): 5.61 nmol/M cells
PC 34:2, Mean nmol/M cells (WM164 cells [6]; WM164, 1µM cTI_15d): 2.35 nmol/M cells
PC 36:1, Mean nmol/M cells (WM164 cells [6]; WM164, 1µM cTI_15d): 0.86 nmol/M cells
PC 36:2, Mean nmol/M cells (WM164 cells [6]; WM164, 1µM cTI_15d): 3.56 nmol/M cells
PE 32:1, Mean nmol/M cells (WM164 cells [6]; WM164, 1µM cTI_15d): 0.21 nmol/M cells
PE 34:1, Mean nmol/M cells (WM164 cells [6]; WM164, 1µM cTI_15d): 0.89 nmol/M cells
PE 34:2, Mean nmol/M cells (WM164 cells [6]; WM164, 1µM cTI_15d): 0.71 nmol/M cells
PE 36:1, Mean nmol/M cells (WM164 cells [6]; WM164, 1µM cTI_15d): 0.75 nmol/M cells
PE 36:2, Mean nmol/M cells (WM164 cells [6]; WM164, 1µM cTI_15d): 1.48 nmol/M cells
PE 36:3, Mean nmol/M cells (WM164 cells [6]; WM164, 1µM cTI_15d): 0.19 nmol/M cells
PE 38:4, Mean nmol/M cells (WM164 cells [6]; WM164, 1µM cTI_15d): 0.27 nmol/M cells
PE 38:5, Mean nmol/M cells (WM164 cells [6]; WM164, 1µM cTI_15d): 0.26 nmol/M cells
PE 40:6, Mean nmol/M cells (WM164 cells [6]; WM164, 1µM cTI_15d): 0.16 nmol/M cells
PI 34:1, Mean nmol/M cells (WM164 cells [6]; WM164, 1µM cTI_15d): 0.42 nmol/M cells
PI 34:2, Mean nmol/M cells (WM164 cells [6]; WM164, 1µM cTI_15d): 0.29 nmol/M cells
PI 36:1, Mean nmol/M cells (WM164 cells [6]; WM164, 1µM cTI_15d): 1.12 nmol/M cells
PI 36:2, Mean nmol/M cells (WM164 cells [6]; WM164, 1µM cTI_15d): 1.12 nmol/M cells
PI 38:2, Mean nmol/M cells (WM164 cells [6]; WM164, 1µM cTI_15d): 0.19 nmol/M cells
PI 38:3, Mean nmol/M cells (WM164 cells [6]; WM164, 1µM cTI_15d): 0.34 nmol/M cells
PI 38:4, Mean nmol/M cells (WM164 cells [6]; WM164, 1µM cTI_15d): 0.64 nmol/M cells
PI 38:5, Mean nmol/M cells (WM164 cells [6]; WM164, 1µM cTI_15d): 0.22 nmol/M cells
PC 30:0, Mean nmol/M cells (WM164 cells [6]; WM164, 2µM cTI_60d): 0.51 nmol/M cells
PC 30:1, Mean nmol/M cells (WM164 cells [6]; WM164, 2µM cTI_60d): 0.27 nmol/M cells
PC 32:0, Mean nmol/M cells (WM164 cells [6]; WM164, 2µM cTI_60d): 0.34 nmol/M cells
PC 32:1, Mean nmol/M cells (WM164 cells [6]; WM164, 2µM cTI_60d): 1.93 nmol/M cells
PC 32:2, Mean nmol/M cells (WM164 cells [6]; WM164, 2µM cTI_60d): 0.26 nmol/M cells
PC 34:1, Mean nmol/M cells (WM164 cells [6]; WM164, 2µM cTI_60d): 4.19 nmol/M cells
PC 34:2, Mean nmol/M cells (WM164 cells [6]; WM164, 2µM cTI_60d): 1.64 nmol/M cells
PC 36:1, Mean nmol/M cells (WM164 cells [6]; WM164, 2µM cTI_60d): 0.82 nmol/M cells
PC 36:2, Mean nmol/M cells (WM164 cells [6]; WM164, 2µM cTI_60d): 2.77 nmol/M cells
PE 32:1, Mean nmol/M cells (WM164 cells [6]; WM164, 2µM cTI_60d): 0.16 nmol/M cells
PE 34:1, Mean nmol/M cells (WM164 cells [6]; WM164, 2µM cTI_60d): 0.68 nmol/M cells
PE 34:2, Mean nmol/M cells (WM164 cells [6]; WM164, 2µM cTI_60d): 0.71 nmol/M cells
PE 36:1, Mean nmol/M cells (WM164 cells [6]; WM164, 2µM cTI_60d): 0.78 nmol/M cells
PE 36:2, Mean nmol/M cells (WM164 cells [6]; WM164, 2µM cTI_60d): 1.83 nmol/M cells
PE 36:3, Mean nmol/M cells (WM164 cells [6]; WM164, 2µM cTI_60d): 0.19 nmol/M cells
PE 38:4, Mean nmol/M cells (WM164 cells [6]; WM164, 2µM cTI_60d): 0.28 nmol/M cells
PE 38:5, Mean nmol/M cells (WM164 cells [6]; WM164, 2µM cTI_60d): 0.27 nmol/M cells
PE 40:6, Mean nmol/M cells (WM164 cells [6]; WM164, 2µM cTI_60d): 0.17 nmol/M cells
PI 34:1, Mean nmol/M cells (WM164 cells [6]; WM164, 2µM cTI_60d): 0.25 nmol/M cells
PI 34:2, Mean nmol/M cells (WM164 cells [6]; WM164, 2µM cTI_60d): 0.17 nmol/M cells
PI 36:1, Mean nmol/M cells (WM164 cells [6]; WM164, 2µM cTI_60d): 0.80 nmol/M cells
PI 36:2, Mean nmol/M cells (WM164 cells [6]; WM164, 2µM cTI_60d): 0.73 nmol/M cells
PI 38:2, Mean nmol/M cells (WM164 cells [6]; WM164, 2µM cTI_60d): 0.18 nmol/M cells
PI 38:3, Mean nmol/M cells (WM164 cells [6]; WM164, 2µM cTI_60d): 0.26 nmol/M cells
PI 38:4, Mean nmol/M cells (WM164 cells [6]; WM164, 2µM cTI_60d): 0.46 nmol/M cells
PI 38:5, Mean nmol/M cells (WM164 cells [6]; WM164, 2µM cTI_60d): 0.12 nmol/M cells
PC 30:0, Mean nmol/M cells (WM164 cells [6]; WM164, 3µM cTI_100d): 0.74 nmol/M cells
PC 30:1, Mean nmol/M cells (WM164 cells [6]; WM164, 3µM cTI_100d): 0.44 nmol/M cells
PC 32:0, Mean nmol/M cells (WM164 cells [6]; WM164, 3µM cTI_100d): 0.42 nmol/M cells
PC 32:1, Mean nmol/M cells (WM164 cells [6]; WM164, 3µM cTI_100d): 3.17 nmol/M cells
PC 32:2, Mean nmol/M cells (WM164 cells [6]; WM164, 3µM cTI_100d): 0.42 nmol/M cells
PC 34:1, Mean nmol/M cells (WM164 cells [6]; WM164, 3µM cTI_100d): 5.27 nmol/M cells
PC 34:2, Mean nmol/M cells (WM164 cells [6]; WM164, 3µM cTI_100d): 2.18 nmol/M cells
PC 36:1, Mean nmol/M cells (WM164 cells [6]; WM164, 3µM cTI_100d): 0.90 nmol/M cells
PC 36:2, Mean nmol/M cells (WM164 cells [6]; WM164, 3µM cTI_100d): 2.89 nmol/M cells
PE 32:1, Mean nmol/M cells (WM164 cells [6]; WM164, 3µM cTI_100d): 0.26 nmol/M cells
PE 34:1, Mean nmol/M cells (WM164 cells [6]; WM164, 3µM cTI_100d): 1.09 nmol/M cells
PE 34:2, Mean nmol/M cells (WM164 cells [6]; WM164, 3µM cTI_100d): 1.08 nmol/M cells
PE 36:1, Mean nmol/M cells (WM164 cells [6]; WM164, 3µM cTI_100d): 1.00 nmol/M cells
PE 36:2, Mean nmol/M cells (WM164 cells [6]; WM164, 3µM cTI_100d): 2.05 nmol/M cells
PE 36:3, Mean nmol/M cells (WM164 cells [6]; WM164, 3µM cTI_100d): 0.26 nmol/M cells
PE 38:4, Mean nmol/M cells (WM164 cells [6]; WM164, 3µM cTI_100d): 0.33 nmol/M cells
PE 38:5, Mean nmol/M cells (WM164 cells [6]; WM164, 3µM cTI_100d): 0.35 nmol/M cells
PE 40:6, Mean nmol/M cells (WM164 cells [6]; WM164, 3µM cTI_100d): 0.19 nmol/M cells
PI 34:1, Mean nmol/M cells (WM164 cells [6]; WM164, 3µM cTI_100d): 0.48 nmol/M cells
PI 34:2, Mean nmol/M cells (WM164 cells [6]; WM164, 3µM cTI_100d): 0.30 nmol/M cells
PI 36:1, Mean nmol/M cells (WM164 cells [6]; WM164, 3µM cTI_100d): 1.26 nmol/M cells
PI 36:2, Mean nmol/M cells (WM164 cells [6]; WM164, 3µM cTI_100d): 1.19 nmol/M cells
PI 38:2, Mean nmol/M cells (WM164 cells [6]; WM164, 3µM cTI_100d): 0.23 nmol/M cells
PI 38:3, Mean nmol/M cells (WM164 cells [6]; WM164, 3µM cTI_100d): 0.35 nmol/M cells
PI 38:4, Mean nmol/M cells (WM164 cells [6]; WM164, 3µM cTI_100d): 0.61 nmol/M cells
PI 38:5, Mean nmol/M cells (WM164 cells [6]; WM164, 3µM cTI_100d): 0.22 nmol/M cells
cell morphology (WM164 cells [7]): more elongated and less dendritic
cell morphology (HT144 cells [8]): remained unchanged
